Measured values published in ChEMBL document CHEMBL1201862, “PubChem BioAssay data set” (2004).
Counter-ions that a name gives are not always drawn. The source made the active and inactive calls.

Columns and labels:
[1] = target: T1, Oxysterols receptor LXR-beta (Homo sapiens, UniProt P55055); test: LXR agonists, Gal4 luciferase reporter, dose response, counter-screen for ssDAF-12 agonist project, cell-based, luminescence, HEK293, S. stercoralis campaign (AID 720737); assay type: functional; settings: read-out: IC50 (the source's name)
T1 sequence (P55055 whole entry): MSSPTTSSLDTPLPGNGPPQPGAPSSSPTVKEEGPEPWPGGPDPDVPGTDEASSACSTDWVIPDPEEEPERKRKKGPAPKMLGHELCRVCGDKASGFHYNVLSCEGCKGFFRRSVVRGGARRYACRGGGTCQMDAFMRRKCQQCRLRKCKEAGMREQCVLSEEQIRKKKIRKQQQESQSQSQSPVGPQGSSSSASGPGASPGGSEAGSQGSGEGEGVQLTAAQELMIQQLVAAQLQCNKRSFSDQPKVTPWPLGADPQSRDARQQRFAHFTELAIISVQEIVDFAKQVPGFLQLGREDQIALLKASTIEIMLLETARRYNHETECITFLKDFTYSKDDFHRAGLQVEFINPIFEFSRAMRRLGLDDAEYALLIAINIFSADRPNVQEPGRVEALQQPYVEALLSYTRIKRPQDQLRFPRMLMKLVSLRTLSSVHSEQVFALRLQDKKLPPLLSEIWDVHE

[2] = Luminescence-based cell-based high throughput dose response assay to identify activators of the DAF-12 from the parasite S. stercoralis (ssDAF-12).; assay type: functional
[3] = ZM109 Env clade C HIV-1 fusion inhibitors, dose response, HeLa effector, CEM target cells, luciferase, cherry-pick (AID 652058); assay type: functional, cell-based
Streptococcus = test: Group A Streptococcus viability loss, dose response, counter-screen for streptokinase expression inhibitor project, luminescence, BacTiterGlo (AID 1915); assay type: functional, organism-based;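 note: potency for reduction of bacterial viability or growth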
[4] = off-target signal loss in HeLa-CEM21 co-culture – HeLa F-luc CTL cells, cherry-picked, counter-screen for HIV-1 Env fusion inhibitor project, dose response (AID 652040); assay type: functional, cell-based;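 note: potency for signal decrease marking cytotoxic or nonspecific inhibition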
INS1 = test: beta cell apoptosis inhibitors, cytokine rescue, dose response, luminescence, retest (AID 449756); assay type: functional, cell-based; settings: Rattus norvegicus;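 note: cell death triggered by IL-1 beta plus TNF-alpha plus IFN-gamma mixture; protective hits raise ATP signal compared with cytokine alone wells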
[5] = inhibitors of HIV Env-driven cell fusion, dose response, cherry-pick (AID 652057); assay type: functional, cell-based
[6] = system: Streptococcus sp. 'group A'; test: growth inhibition of control SK(-) GAS strain, dose response, counter-screen for streptokinase expression inhibitor project, luminescence, kanamycin, BacTiterGlo, confirmation (AID 1900); assay type: functional, organism-based
[7] = inhibitors of clade B AD8 Env fusion, dose response, cell-based, cherry-pick (AID 652062); assay type: functional;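 note: luciferase signal from cell-cell fusion driven by HIV-1 clade B AD8 Env; potency is for inhibitors of fusion seen as a drop in luminescence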
[8] = CEM21 lymphoblast cell cytotoxicity, dose response, cytotoxicity control for viral fusion inhibitor project, CellTiter-Glo luminescence, cherry-picked (AID 652042); assay type: functional, cell-based;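 note: potency for signal decrease meaning cytotoxicity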
[9] = target: Disintegrin and metalloproteinase domain-containing protein 17 (Homo sapiens, UniProt P78536); test: exosite inhibitors of ADAM17, dose response, biochemical (AID 743260)
HEK293 = test: inhibitors of LMP1-driven NF-kB reporter, dose response, cell-based, HEK293, luciferase, cherry-pick (AID 588343); assay type: functional; settings: Homo sapiens
cells [10] = assay type: functional, cell-based
[11] = target: T2, Trace amine-associated receptor 1 (Homo sapiens, UniProt Q96RJ0); test: Fluorescence-based cell-based high throughput dose response assay to identify agonists of the human trace amine associated receptor 1 (TAAR1).; assay type: functional
T2 sequence (Q96RJ0 whole entry): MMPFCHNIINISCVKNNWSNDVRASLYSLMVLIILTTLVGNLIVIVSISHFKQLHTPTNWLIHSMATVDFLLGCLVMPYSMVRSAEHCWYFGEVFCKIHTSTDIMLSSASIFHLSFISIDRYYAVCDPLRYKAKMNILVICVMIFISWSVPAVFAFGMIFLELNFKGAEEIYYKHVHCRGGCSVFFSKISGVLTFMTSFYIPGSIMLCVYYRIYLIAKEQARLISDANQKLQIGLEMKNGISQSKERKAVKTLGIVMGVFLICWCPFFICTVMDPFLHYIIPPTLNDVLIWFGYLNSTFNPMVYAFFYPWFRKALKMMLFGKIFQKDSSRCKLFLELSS

[12] = target: T2, Trace amine-associated receptor 1; test: Counterscreen for agonists of the human trace amine associated receptor 1 (hTAAR1): Fluorescence-based cell-based high throughput dose response assay to identify hTAAR1 agonist that also desensitize TAAR1 receptor response.; assay type: functional
cells [13] = assay type: functional, cell-based; remark: listed apart in the source
[14] = ADAM10 protease inhibitors, dose response, selectivity assay for ADAM17 exosite inhibitor project, biochemical, FRET peptide substrate, recombinant human ADAM10 (AID 743259);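 note: ADAM10 enzyme cleaving a FRET peptide substrate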
[15] = target: T1, Oxysterols receptor LXR-beta; assay type: functional, cell-based
cells [16] = test: cells
[17] = T. cruzi growth inhibition in host cells, dose response, cell-based, plate reader, dry powder, set 2 (AID 652275); assay type: functional
[18] = growth inhibition of intracellular T. cruzi, dose response, cell-based, plate reader, dry powder samples (AID 651845); assay type: functional
[19] = intracellular Trypanosoma cruzi inhibitors in host cells – cell-based, plate reader, cherry-pick samples, set 3, dose response (AID 651818); assay type: functional;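 note: compounds incubated with infected cells for about four days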
[20] = T. cruzi intracellular amastigote growth inhibition, dose response, imaging, CA-I/72 strain, bovine embryo skeletal muscle, dry powder (AID 651885); assay type: functional, cell-based
[21] = NIH:OVCAR-3 ovarian cancer cell cytotoxicity, dose response, PAX8 inhibitor project, plate reader, dry powder samples (AID 743044); assay type: functional, cell-based
[22] = cytotoxicity in OVCAR8 ovarian cancer cells, dose response, PAX8 project, cell-based, plate reader, dry powder samples (AID 743197); assay type: functional; settings: OVCAR-8
[23] = HEK293T cytotoxicity, dose response, cytotoxicity control for miR-122 modulator project, cell-based, activator set, cherry-pick (AID 720690); assay type: functional;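 note: HEK293T human cells scored for general mammalian cytotoxicity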
Paired box protein Pax-8 = Paired box protein Pax-8 (Homo sapiens, UniProt Q06710); test: inhibitors of PAX8-driven TPO luciferase reporter, dose response, RMG-I cells, cherry-pick (AID 687027); assay type: functional, cell-based;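 note: luciferase reporter driven by Pax8 target thyroperoxidase promoter measured by SteadyGlo luminescence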
[24] = ADAM10 inhibitors, peptide cleavage, dose response, biochemical, QFRET (AID 743254);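 note: ADAM10 enzyme with the DM2 quenched FRET peptide as substrate; EDANS fluorescence gain as the protease cuts the substrate; inhibitor potency against ADAM10 proteolytic activity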
[25] = target: Potassium channel subfamily K member 3 (Homo sapiens, UniProt O14649); test: TASK1 (KCNK3) potassium channel inhibitors, SAR follow-up, CHO cells, FluxOR thallium flux (AID 652212); assay type: functional
[26] = target: Potassium channel subfamily K member 9 (Homo sapiens, UniProt Q9NPC2); test: TASK3 (KCNK9) channel inhibitors, thallium flux, SAR follow-up, selectivity assay for TASK1 inhibitor project, cell-based, FluxOR thallium flux, concentration-response (AID 652211); assay type: functional;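 note: potency is for inhibitors of the channel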
[27] = target: T3, Beta-2 adrenergic receptor (Homo sapiens, UniProt P07550); test: Dose response for HTS for Beta-2AR agonists via FAP method from Powderset3.; assay type: functional
[28] = HEp-2 cell cytotoxicity, dose response, cytotoxicity control for RSV inhibitor project, HTS (AID 2410); assay type: functional; settings: human respiratory syncytial virus
[29] = Jurkat T cell cytotoxicity, dose response, cytotoxicity control for P. falciparum gametocyte viability project, luminescence (AID 1117277); assay type: functional, cell-based;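 note: potency reflects loss of cellular ATP meaning fewer viable cells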
[30] = target: T3, Beta-2 adrenergic receptor; test: beta2AR agonists driving receptor internalization, dose response, cell-based, FAP fluorogen, flow cytometry, cherry pick 1 (AID 588763); assay type: functional
Streptokinase A = target: T4, Streptokinase A (Streptococcus pyogenes serotype M1, UniProt P10520); test: S. pyogenes streptokinase expression inhibitors, potency, dose response, plasminogen activation absorbance, OD405 (AID 1914); assay type: functional, Streptococcus pyogenes M1 GAS;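 note: secreted streptokinase activity via plasminogen activation per viability signal from cell pellet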
T4 sequence (P10520 whole entry): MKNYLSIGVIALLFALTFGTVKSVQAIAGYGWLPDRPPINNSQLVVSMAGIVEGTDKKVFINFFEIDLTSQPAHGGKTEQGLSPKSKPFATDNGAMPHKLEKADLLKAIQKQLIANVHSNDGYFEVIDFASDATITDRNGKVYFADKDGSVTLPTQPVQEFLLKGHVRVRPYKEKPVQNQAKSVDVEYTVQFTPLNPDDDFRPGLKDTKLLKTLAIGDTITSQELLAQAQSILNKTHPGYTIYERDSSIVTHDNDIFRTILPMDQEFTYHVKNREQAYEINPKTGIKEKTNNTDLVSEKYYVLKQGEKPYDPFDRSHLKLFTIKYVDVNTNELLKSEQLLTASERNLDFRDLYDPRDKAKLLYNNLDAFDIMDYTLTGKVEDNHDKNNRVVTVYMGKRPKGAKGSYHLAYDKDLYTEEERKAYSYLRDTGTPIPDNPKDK

[31] = P. falciparum late gametocyte killing, dose response, luminescence (AID 1117278); assay type: functional, cell-based;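 note: gametocytes exposed to compound for 24 hours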

Sequence of Disintegrin and metalloproteinase domain-containing protein 17 (P78536 whole entry, the tested form may be a part): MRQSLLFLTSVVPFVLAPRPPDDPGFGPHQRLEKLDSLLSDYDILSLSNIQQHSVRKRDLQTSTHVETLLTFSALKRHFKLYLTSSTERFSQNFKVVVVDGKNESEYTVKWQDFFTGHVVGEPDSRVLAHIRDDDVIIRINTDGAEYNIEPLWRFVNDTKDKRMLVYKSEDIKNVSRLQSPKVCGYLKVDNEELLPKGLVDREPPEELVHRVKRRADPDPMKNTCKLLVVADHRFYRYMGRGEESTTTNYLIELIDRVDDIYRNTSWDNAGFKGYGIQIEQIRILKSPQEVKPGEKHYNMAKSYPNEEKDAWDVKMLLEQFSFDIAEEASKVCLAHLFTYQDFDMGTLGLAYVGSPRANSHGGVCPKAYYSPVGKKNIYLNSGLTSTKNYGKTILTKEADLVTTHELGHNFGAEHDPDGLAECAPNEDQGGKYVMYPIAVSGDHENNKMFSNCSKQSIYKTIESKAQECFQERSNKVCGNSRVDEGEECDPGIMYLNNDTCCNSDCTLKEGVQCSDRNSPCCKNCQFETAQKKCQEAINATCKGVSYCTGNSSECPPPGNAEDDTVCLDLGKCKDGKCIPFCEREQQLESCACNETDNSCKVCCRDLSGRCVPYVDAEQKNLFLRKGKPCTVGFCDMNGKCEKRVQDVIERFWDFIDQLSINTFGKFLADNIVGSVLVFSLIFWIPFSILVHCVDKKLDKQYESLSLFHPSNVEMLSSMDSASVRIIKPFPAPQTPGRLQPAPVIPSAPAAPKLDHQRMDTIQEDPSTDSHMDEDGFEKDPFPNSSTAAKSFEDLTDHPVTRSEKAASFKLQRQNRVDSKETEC
T3 sequence (P07550 whole entry): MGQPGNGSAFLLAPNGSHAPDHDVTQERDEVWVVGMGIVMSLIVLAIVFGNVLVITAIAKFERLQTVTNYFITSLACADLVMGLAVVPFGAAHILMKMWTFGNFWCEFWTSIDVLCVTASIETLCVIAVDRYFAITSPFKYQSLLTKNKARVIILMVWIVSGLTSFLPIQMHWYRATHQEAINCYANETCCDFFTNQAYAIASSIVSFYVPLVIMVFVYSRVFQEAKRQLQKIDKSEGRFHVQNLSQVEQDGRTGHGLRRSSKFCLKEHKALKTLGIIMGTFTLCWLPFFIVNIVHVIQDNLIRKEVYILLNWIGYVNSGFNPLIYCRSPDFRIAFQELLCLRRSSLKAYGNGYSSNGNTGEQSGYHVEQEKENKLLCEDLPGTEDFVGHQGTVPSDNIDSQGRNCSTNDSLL
Sequence of Paired box protein Pax-8 (Q06710 whole entry): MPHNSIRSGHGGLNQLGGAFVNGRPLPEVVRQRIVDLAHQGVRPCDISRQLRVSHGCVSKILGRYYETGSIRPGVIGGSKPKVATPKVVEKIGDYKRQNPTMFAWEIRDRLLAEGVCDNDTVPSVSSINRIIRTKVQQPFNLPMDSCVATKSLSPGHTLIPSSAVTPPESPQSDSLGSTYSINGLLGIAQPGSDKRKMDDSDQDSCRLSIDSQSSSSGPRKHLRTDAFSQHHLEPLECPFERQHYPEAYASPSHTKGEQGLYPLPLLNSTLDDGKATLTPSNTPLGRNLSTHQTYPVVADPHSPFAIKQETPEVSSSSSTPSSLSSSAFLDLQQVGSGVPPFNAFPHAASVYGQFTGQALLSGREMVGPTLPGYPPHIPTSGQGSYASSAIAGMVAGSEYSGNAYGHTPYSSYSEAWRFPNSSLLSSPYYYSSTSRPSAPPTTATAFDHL
Sequence of Potassium channel subfamily K member 9 (Q9NPC2 whole entry): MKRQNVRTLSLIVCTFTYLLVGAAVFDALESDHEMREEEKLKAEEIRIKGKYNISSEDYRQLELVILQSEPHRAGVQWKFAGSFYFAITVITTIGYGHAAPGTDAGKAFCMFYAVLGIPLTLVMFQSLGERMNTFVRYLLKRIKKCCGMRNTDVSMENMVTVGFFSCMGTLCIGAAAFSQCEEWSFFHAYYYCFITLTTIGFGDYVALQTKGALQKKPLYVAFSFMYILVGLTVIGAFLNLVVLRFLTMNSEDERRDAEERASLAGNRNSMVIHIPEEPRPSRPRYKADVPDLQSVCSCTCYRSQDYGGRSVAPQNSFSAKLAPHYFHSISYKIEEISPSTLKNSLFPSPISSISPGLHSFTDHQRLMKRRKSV
Sequence of Potassium channel subfamily K member 3 (O14649 whole entry): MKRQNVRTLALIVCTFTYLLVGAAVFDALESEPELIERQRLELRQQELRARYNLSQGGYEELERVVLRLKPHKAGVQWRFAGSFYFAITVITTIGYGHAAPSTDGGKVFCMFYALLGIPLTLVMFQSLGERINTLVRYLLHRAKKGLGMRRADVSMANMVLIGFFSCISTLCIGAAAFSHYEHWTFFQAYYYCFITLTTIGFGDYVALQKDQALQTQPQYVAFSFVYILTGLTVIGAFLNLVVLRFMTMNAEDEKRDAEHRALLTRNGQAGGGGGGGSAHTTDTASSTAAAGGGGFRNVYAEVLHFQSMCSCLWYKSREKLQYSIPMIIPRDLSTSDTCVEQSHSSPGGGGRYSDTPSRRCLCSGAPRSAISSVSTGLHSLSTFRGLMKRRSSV

## O=C(CSc1nc2nncc-2c(O)[nH]1)Nc1nccs1
[1]
  EC50: > 67.6 µM (inactive)
[2]
  IC50: > 67.6 µM (inactive)

## CCCCCCn1c(=O)c(C(=O)Nc2ncccc2C)c(O)c2ccccc21
[3]
  AC50: 3.78 µM (active)
Streptococcus
  EC50: 1.98 µM (active)
[4]
  AC50: 5.77 µM (active)
INS1
  AC50: 7.92 µM (active)
[5]
  AC50: 5.24 µM (active)
[6]
  EC50: 0.566 µM (active)
[7]
  AC50: 4.02 µM (active)
[8]
  AC50: 28.6 µM (active)

## C[C@H](NC(=O)c1nc[nH]c1C(=O)NC(c1ccccc1)c1ccccc1)C(=O)OCc1ccccc1
[9]
  IC50: > 69.5 µM (inactive)

## O=C1CCCCC1Sc1nnc(-c2ccc3c(c2)OCO3)o1 (configuration not stated)
[3]
  AC50: 41.9 µM (active)
[4]
  AC50: 12.3 µM (active)
[5]
  AC50: 2.73 µM (active)
HEK293
  AC50: 0.841 µM (active)
[7]
  AC50: 6.84 µM (active)

## O=C(Cc1nnc(NC(=O)Nc2ccccc2)s1)NCc1ccccc1
Cells [10]
  EC50: > 29.9 µM (inactive)
[11]
  EC50: > 29.9 µM (inactive)
[12]
  IC50: > 29.9 µM (inactive)
Cells [13]
  IC50: > 29.9 µM (inactive)

## O=C(Nc1cccc(Cl)c1)OCCOCCOC(=O)Nc1cccc(Cl)c1
[14]
  IC50: 12.9 µM (inactive)
[9]
  IC50: > 69.4 µM (inactive)

## CC(C)(C)NC(=O)C(c1cc2ccccc2o1)n1c(-c2ccc(-c3ccccc3)cc2)nc2ccccc21 (configuration not stated)
[15]
  EC50: > 67.6 µM (inactive)
Cells [16]
  EC50: > 67.6 µM (inactive)
[1]
  EC50: > 67.6 µM (inactive)
[2]
  IC50: > 67.6 µM (inactive)

## C[C@@H]1CN([C@H](C)CO)C(=O)c2cccc(NC(=O)c3ccncc3)c2O[C@H]1CN(C)Cc1ccc(C(F)(F)F)cc1
[17]
  AC50: 0.0647 µM (active)
[18]
  AC50: 0.0597 µM (active)
[19]
  AC50: 0.344 µM (active)
[20]
  IC50: 0.048 µM (active)

## COc1ccc(S(=O)(=O)Nc2ccc3c(c2)CC(=O)N([C@@H](C)CO)C[C@@H](C)[C@H](CN(C)Cc2ccc(C(F)(F)F)cc2)O3)cc1
[5]
  AC50: 13.4 µM (active)
[21]
  AC50: 24.4 µM (active)
[22]
  AC50: 29.5 µM (active)
[23]
  AC50: 25.5 µM (active)
[7]
  AC50: 18.5 µM (active)
Paired box protein Pax-8
  AC50: 6.77 µM (active)

## CNC(=O)[C@@H](NC(=O)[C@H](CC(C)C)[C@H](O)C(=O)NO)C(C)(C)C
[24]
  IC50: 0.0607 µM (active)
[14]
  IC50: 0.0358 µM (active)

## O=C(Nc1cccc(NC(=O)c2ccccc2)c1)c1ccccc1
[25]
  IC50: 0.024 µM (active)

## Cc1cccc(C(=O)Nc2cccc(NC(=O)c3ccccc3C(F)(F)F)c2)c1
[26]
  IC50: 12.9 µM (active)

## CC(Oc1ccc(Cl)cc1Cl)c1nc(-c2ccc(NC(=O)c3ccco3)cc2)no1 (configuration not stated)
[27]
  EC50: 0.204 µM (active)
[28]
  CC50: 20.2 µM (active)
Streptococcus
  EC50: 25.7 µM (active)
[6]
  EC50: 21.7 µM (active)
[29]
  IC50: > 83.3 µM (inactive)
[30]
  EC50: 7.06 µM (active)
Streptokinase A
  EC50: > 150 µM (not active)
[31]
  IC50: > 109 µM (inactive)

## c1ccc(CC2=NCCN2)cc1 [TOLAZOLINE HYDROCHLORIDE]
Cells [10]
  EC50: > 29.9 µM (inactive)
[11]
  EC50: 1.01 µM (active)
[12]
  IC50: 4.74 µM (active)
Cells [13]
  IC50: > 29.9 µM (inactive)
